According to patent US20260274851A1, “MODULATORS OF TRPML, THEIR COMPOSITIONS AND METHODS OF USE” (Caraway Therapeutics, Inc., priority 2023, published 2026):

Assays:
Human TRPML1 = Human TRPML1 (Homo sapiens, UniProt Q9GZU1); assay: Fluorescent TRPML1 assay (Fluo4 calcium fluorescence, HEK-293 Trex cells); assay type: cell-based; conditions: HEK-293 Trex cells expressing surface-directed hTRPML1, Fluo4 fluorescence
Procedure: (§1) HEK-293 Trex cells were stably transfected with a construct consisting of the human coding sequence for TRPML1 cloned into the tet-inducible plasmid pCDNA5 T/O. Mutations were introduced into the TRPML1 sequence to facilitate expression on the cell surface (Silvia Vergarajauregui. Rosa Puertollano Traffic. 2006 March: 7(3): 337-353). Briefly, the cells are cultured in 150 mm round tissue culture dishes containing 20 mL of media. The day before the assay the cells are rinsed with DPBS—Ca —Mg and then treated briefly with Trypsin-EDTA. The Trypsin-EDTA is diluted with growth media, and cells are counted. 38×10^6 cells are re-plated into 150 mm round tissue culture dishes in media containing 0.5 g/mL doxycycline to induce expression of hTRPML1.
(§2) The day of the experiment cells are lifted from the plates as above and collected by centrifugation. The cells are then suspended in dye loading buffer consisting of Ringer's solution supplemented with 0.1% Pluronic Acid and 1 micromolar Fluo4-AM dye. Cells are loaded for ~60 minutes in the dark with occasional mixing. The cells are collected by centrifugation, the loading media aspirated, and the cells resuspended in 25 mL Ringer's solution and incubated ~60 minutes in the dark. The cells are again collected by centrifugation, rinsed in Ringer's Solution and resuspended to 0.2×10^6 cells/mL in modified Ringer's solution containing 10 mM calcium.
(§3) Compounds are dissolved to a concentration of 10 millimolar with DMSO. Compound plates are created by dispensing compounds into 384 well black wall clear bottom plates (Greiner 781091). Positive and negative controls are included on each plate. Typically, different amounts of each compound are tested ranging from 100 nanoMoles (20 micromolar final concentration) decreasing in half-log steps to 31 picoMoles (6 nanomolar final concentration). Each concentration is typically tested in triplicate.
(§4) 50 microliters of dye-loaded cells are dispensed into each well of the compound assay plate created above. The fluorescence in each well is then determined with an excitation wavelength of 480 nm and an emission wavelength of 540 nm using either a Molecular Devices SpectraMax multimode plate reader or a Hamamatsu FDSS/uCell plate imager.
(§5) The resulting fluorescence for each well is exported as an ascii file and loaded into our LIMS for analysis. The percent activity of each compound at each concentration is determined by comparison to the positive and negative control wells included in each plate.
(§6) EC50 values were calculated using a non-linear regression of Prism. In the table, “A” indicates an EC50 of less than 100 nM, “B” indicates an EC50 range from 100 nM to 500 nM; “C” indicates an EC50 range from 500 nM to 2 μM; and “D” indicates an EC50 greater than 2 μM.

Human TRPML3 = target: T1, Human TRPML3 (Homo sapiens, UniProt Q8TDD5); assay: Fluorescent TRPML3 assay (as for TRPML1); assay type: cell-based; conditions: as TRPML1 assay with TRPML3 subtype
T1 construct: expressed in transfected cells
T1 sequence (Q8TDD5 1-553): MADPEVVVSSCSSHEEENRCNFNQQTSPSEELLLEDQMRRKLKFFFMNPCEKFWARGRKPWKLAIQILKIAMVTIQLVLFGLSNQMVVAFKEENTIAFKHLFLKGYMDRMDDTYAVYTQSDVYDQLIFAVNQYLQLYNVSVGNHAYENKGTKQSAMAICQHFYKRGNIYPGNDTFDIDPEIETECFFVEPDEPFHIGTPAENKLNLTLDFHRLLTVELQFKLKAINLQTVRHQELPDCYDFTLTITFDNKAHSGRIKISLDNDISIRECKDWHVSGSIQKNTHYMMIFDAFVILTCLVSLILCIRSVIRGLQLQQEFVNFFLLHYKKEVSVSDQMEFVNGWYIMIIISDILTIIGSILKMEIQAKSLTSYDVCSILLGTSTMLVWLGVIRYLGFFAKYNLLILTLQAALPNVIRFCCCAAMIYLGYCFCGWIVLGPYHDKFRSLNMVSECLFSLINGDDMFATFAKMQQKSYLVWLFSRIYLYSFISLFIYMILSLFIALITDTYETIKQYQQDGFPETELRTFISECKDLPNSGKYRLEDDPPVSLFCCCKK
Procedure: as §1, §2, §3, §4, §5
Assays for TRPML2 and TRPML3 were performed as above for TRPML1, by substituting the appropriate TRPML2 or TRPML3 subtype for the TRPML1.
as §6

Human TRPML2 = target: T2, Human TRPML2 (Homo sapiens, UniProt Q8IZK6); assay: Fluorescent TRPML2 assay (as for TRPML1); assay type: cell-based; conditions: as TRPML1 assay with TRPML2 subtype
T2 construct: expressed in transfected cells
T2 sequence (Q8IZK6 1-566): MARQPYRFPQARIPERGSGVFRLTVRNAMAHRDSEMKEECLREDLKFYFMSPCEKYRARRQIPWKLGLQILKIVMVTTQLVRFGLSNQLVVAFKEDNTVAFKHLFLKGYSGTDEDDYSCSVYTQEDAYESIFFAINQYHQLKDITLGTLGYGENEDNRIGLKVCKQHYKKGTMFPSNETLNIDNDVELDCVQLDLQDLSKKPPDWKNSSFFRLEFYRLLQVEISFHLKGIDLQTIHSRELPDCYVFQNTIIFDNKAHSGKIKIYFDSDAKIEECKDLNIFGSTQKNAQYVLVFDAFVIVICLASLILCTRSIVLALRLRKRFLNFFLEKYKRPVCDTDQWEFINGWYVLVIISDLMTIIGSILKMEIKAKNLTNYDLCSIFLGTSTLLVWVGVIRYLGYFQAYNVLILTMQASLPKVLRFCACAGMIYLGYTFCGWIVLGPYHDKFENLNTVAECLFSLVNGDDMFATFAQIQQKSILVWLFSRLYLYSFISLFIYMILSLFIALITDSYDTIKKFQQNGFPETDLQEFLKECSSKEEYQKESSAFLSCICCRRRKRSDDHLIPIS
Procedure: as §1, with “38×10^6 cells are re-plated into 150 mm round tissue culture dishes in media containing 0.5 g/mL doxycycline to induce expression of hTRPML1.” left out
as §4
The resulting fluorescence for each well is exported as an ascii file and loaded into our LIMS for analysis. The percent activity of each compound at each concentration is determined by comparison to the positive and negative control wells included in each plate. […]
EC50 values were calculated using a non-linear regression of Prism. […]

TRPMLs = conditions: high concentrations needed; background statement; cited from earlier work

Human TRPML1, sequence (Q9GZU1 whole entry L15A/L16A/L577A/L578A, form open): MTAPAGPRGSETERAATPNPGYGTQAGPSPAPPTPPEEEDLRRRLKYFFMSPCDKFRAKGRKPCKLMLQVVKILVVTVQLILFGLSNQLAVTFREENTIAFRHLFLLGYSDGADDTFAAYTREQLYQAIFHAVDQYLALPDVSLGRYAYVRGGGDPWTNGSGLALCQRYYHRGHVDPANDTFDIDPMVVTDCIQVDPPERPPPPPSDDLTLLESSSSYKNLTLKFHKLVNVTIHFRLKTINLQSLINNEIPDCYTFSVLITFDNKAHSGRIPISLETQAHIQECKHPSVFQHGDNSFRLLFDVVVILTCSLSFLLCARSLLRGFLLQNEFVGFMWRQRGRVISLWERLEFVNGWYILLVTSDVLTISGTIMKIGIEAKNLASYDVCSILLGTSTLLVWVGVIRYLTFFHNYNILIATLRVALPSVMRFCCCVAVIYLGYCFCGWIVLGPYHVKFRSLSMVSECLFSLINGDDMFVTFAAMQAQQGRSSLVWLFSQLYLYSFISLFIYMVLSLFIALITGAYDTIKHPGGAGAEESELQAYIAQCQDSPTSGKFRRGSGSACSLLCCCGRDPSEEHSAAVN

SMILES	EC50 (Human TRPML1) [µM]	EC50 (Human TRPML3) [µM]	EC50 (Human TRPML2) [µM]	Concentration needed to effectively activate TRPMLs (TRPMLs)
C[C@@H]1CN(c2ncnc3c2c(-c2ccccc2F)cn3-c2cccc(C#N)c2)[C@@H](C)CN1C(=O)C(C)(C)O [Compound 102, 3-(5-(2-fluorophenyl)-4-((25,5R)-4-(2-hydroxy-2-methylpropanoyl)-2,5-dimethylpiperazin-1-yl)-7H-pyrrolo[2,3-d]pyrimidin-7-yl)benzonitrile]	0.1 to 0.5	> 2		
C[C@@H]1CN(c2ncnc3c2c(-c2ccccc2F)cn3-c2cc(F)cc(F)c2)[C@@H](C)CN1C(=O)C(C)(C)O [Compound 104, 1-((2R,5S)-4-(7-(3,5-difluorophenyl)-5-(2-fluorophenyl)-7H-pyrrolo[2,3-d]pyrimidin-4-yl)-2,5-dimethylpiperazin-1-yl)-2-hydroxy-2-methylpropan-1-one]	0.5 to 2	> 2		
COC(C)(C)C(=O)N1C[C@H](C)N(c2ncnc3c2c(-c2ccccc2F)cn3-c2cccc(F)c2)C[C@H]1C [Compound 103, 1-((2R,5S)-4-(5-(2-fluorophenyl)-7-(3-fluorophenyl)-7H-pyrrolo[2,3-d]pyrimidin-4-yl)-2,5-dimethylpiperazin-1-yl)-2-methoxy-2-methylpropan-1-one]	< 0.1	< 0.1	0.1 to 0.5	
C[C@@H]1CN(c2ncnc3c2c(-c2ccccc2)cn3-c2cccc(C#N)c2)[C@@H](C)CN1C(=O)C(C)(C)O [Compound 101, 3-(4-((2S,5R)-4-(2-hydroxy-2-methylpropanoyl)-2,5-dimethylpiperazin-1-yl)-5-phenyl-7H-pyrrolo[2,3-d]pyrimidin-7-yl)benzonitrile]	0.1 to 0.5	> 2		
C[C@@H]1CN(c2ncnc3c2c(-c2ccccc2F)cn3-c2cccc(Cl)c2)[C@@H](C)CN1C(=O)C(C)(C)O [Compound 105, 1-((2R,5S)-4-(7-(3-chlorophenyl)-5-(2-fluorophenyl)-7H-pyrrolo[2,3-d]pyrimidin-4-yl)-2,5-dimethylpiperazin-1-yl)-2-hydroxy-2-methylpropan-1-one]	0.1 to 0.5	0.5 to 2		
CC1CC(C)(C)N(C(=O)CN2C(=O)c3ccccc3C2=O)c2ccccc21 (stereo not drawn) [ML-SA1]				~ 10 μM
